Bridge positions count the residues as written; N and C are the ends. Square brackets hold non-standard residues; d marks the D form. Peptide text beside a SMILES is read from it. * marks the point of attachment. Biotin = O=C1N[C@H]2[C@H](CS[C@H]2CCCCC(=O)*)N1; pY = N[C@@H](Cc1ccc(OP(=O)(O)O)cc1)C(=O)O; AEEA = NCCOCCOCC(=O)O
Target: T1, gp120 HxBc2 (Human immunodeficiency virus type 1 group M subtype B, UniProt P04578)
T1 construct: incubated for 3 h with gp120 HxBc2 (ImmuneTech); purchased ImmuneTech
Assay: Peptide binding assay (ELISA): gp120 binding to immobilized biotinylated peptide
Parameters: species or system HIV-1
Conditions: same ELISA, gp120 up to 16.6 nM
Description: High-binding Corning Costar microtiter half-area plates were coated with Neutravidin (Thermo Scientific, Dreieich, Germany, 4.0 μ g /mL) in 0.1 M carbonate buffer pH 9.6, overnight at 4 ^∘C . After the blocking of unspecific binding with 1% BSA in 0.1 M phosphate buffer pH 7.2, for 1 h , the neutravidin-coated plate was incubated with 2 μ m biotinylated peptide for 2 h . Plates were then incubated for 3 h with gp120 HxBc2 (ImmuneTech, New York, NY, USA) at three-fold serial dilutions, starting at 16.6 nM. Bound gp120 was detected with sheep anti-gp120 (Aalto Bio Reagents, Dublin, Ireland) 0.1 μ g /mL) for 1 h , followed by rabbit anti-sheep-HRP conjugate (Jackson Immuno Research, Ely, UK, 0.1 μ g /mL) for 1 h . All peptides and proteins were diluted in 0.1 M phosphate buffer pH 7.2, containing 0.01% Tween. Plates were developed with OPD ( 1 m g /mL) in the presence of 0.03% H2O2 for approximately 10 min in the dark. After the reaction was stopped with 2 M H2SO4, absorbance was read at 492 n m . The absorbance of the blanks (samples without peptide) was subtracted. All data points present means of duplicates. Curves were fitted and EC50 values calculated using the program Origin 2021 (OriginLab Corporation, Northampton, MA, USA).

## CC[C@H](C)[C@@H]1NC(=O)[C@@H](NC(=O)CNC(=O)COCCOCCNC(=O)CCCC[C@@H]2SC[C@@H]3NC(=O)N[C@@H]32)CSSC[C@@H](C(=O)N[C@@H](Cc2ccc(O)cc2)C(=O)N[C@@H](Cc2ccc(OP(=O)(O)O)cc2)C(=O)N[C@@H](CC(=O)O)C(=O)N[C@@H](Cc2ccccc2)C(=O)N[C@@H](CC(N)=O)C(=O)N[C@@H](CC(=O)O)C(=O)NCC(N)=O)NC(=O)[C@H](C(C)C)NC(=O)[C@H](CC(=O)O)NC(=O)[C@H](CC(=O)O)NC(=O)[C@H](Cc2c[nH]cn2)NC(=O)[C@H](Cc2c[nH]c3ccccc23)NC1=O [LW40.2] ({Biotin-AEEA}-GCIWHDDVCY[pY]DFNDG-NH2; disulfide 2-9)
  binding of gp120 to the peptide (in words): no detectable binding at all
